Measurements from patent US10266527B2, “T-box riboswitch-binding anti-bacterial compounds” (THE RESEARCH FOUNDATION FOR THE STATE UNIVERSITY OF NEW YORK, priority 2013, dated 2019).
≈ marks a conversion by molar mass, not a printed value. Entries after “also recorded” stand apart in the source; their conditions may differ. Read-outs that look alike come from different tables or passages of the source.

Assays:
Assay type in all cases: cell-based
[1] = tested on: B. subtilis; test: Disc diffusion assay, growth inhibition of B. subtilis; details: Table 1, ✓ = zone of inhibition observed
From the text: The same 20 top binders and 8 additional predicted to interact with the cleft of the tyrRS mRNA Specifier Loop were selected from subsequent docking and preliminary fluorescence data.

[2] = tested on: B. subtilis BGSC 1A1; test: Broth microdilution MIC; details: for MIC: Bacillus subtilis, BGSC1A1, B. subtilis BGSC 1A1, 20 h at 37° C., read-out: MIC
Description: (§1) Broth microdilution assays^77, 78 were performed with B. subtilis, and S. aureus to determine the lowest compound concentration inhibiting visible growth, i.e., minimum inhibitory concentration (MIC) of the 4 original compounds. […] The insolubility of the fourth compound may account for its lack of antibacterial activity. […] The MICs of each compound are moderate.
(§2) Strains were grown on trypticase soy agar (TSA) with 5% sheep blood at 37° C. for 24 hours. Five isolated colonies were used to inoculate 5 mL cation-adjusted Mueller-Hinton broth (CAMHB) contained in a 50 mL centrifuge tube. The resulting culture was incubated shaking at 200 rpm for 3 hours at 37° C. and then diluted in CAMHB until its turbidity matched that of a 0.5 McFarland standard (OD625 0.08-0.10). After the culture had been standardized against a 0.5 McFarland standard, it was diluted 1:10 in CAMHB and then 5 μL of this dilution was added to the appropriate wells of a 96-well, flat-bottomed tissue culture plate in which each row contained a twofold dilution series of a particular compound ranging in concentration from 0.25 μg/mL to 512 μg/mL. Each plate also included a sterility control well containing CAMHB to which standardized inoculum was not added and a growth control well containing CAMHB to which 5 μL standardized inoculum was added. […] With the exception of the sterility control well, all wells were inoculated within 15 minutes of inoculum preparation to ensure that the starting concentration of bacteria in each well was approximately 5×10^5 CFU/m L. A Tecan Sunrise microplate absorbance reader was used to measure the OD620 of each well before and after 20 h incubation at 37° C. MIC values were recorded as the lowest compound concentration at which no visible growth was observed after this incubation period.

[3] = tested on: B. cereus ATCC 7064; test: Broth microdilution MIC; details: for MIC: Bacillus cereus, ATCC7064, B. cereus ATCC 7064, read-out: MIC; for growth inhibition of B. cereus (in words): at moderate concentrations
[4] = tested on: S. aureus ATCC 29213; test: Broth microdilution MIC
From the text: (§3) The identity and purity of both PKZ 6 and 18 was confirmed by mass spectroscopy. Forty commercially available compounds chosen on the basis of initial in silico selections and similarity to our two hits were screened by disc diffusion assay (DDA) to determine their relative antibacterial activity with S. aureus. […] These 14 compounds were further evaluated by minimum inhibitory concentration assays (MIC)^41,42, and minimum bactericidal assays (MBC)^41 to confirm antibacterial activity, determine the concentration at which S. aureus growth is inhibited in liquid culture (MIC) and if they are acting as bacteriostatic or bactericidal agents (MBC). […] Representative embodiments are shown below.
as §1, §2

[5] = tested on: S. aureus ATCC 29213; test: MBC determination; details: for MBC: S. aureus ATCC 29213, N/O = not observed; for S. aureus (MBC): Table 5 analogs, triplicate experiments, N/O = not observed at concentrations tested (512-0.25 μg/mL)
From the text: as §3
(§4) Following 24 h incubation of these subcultures at 37° C., MBC values were recorded as the lowest compound concentration at which no viable colonies were observed.

[6] = tested on: S. pneumoniae ATCC 49619; test: Broth microdilution MIC; details: for MIC: Streptococcus pneumoniae, ATCC49619, S. pneumoniae ATCC 49619, read-out: MIC; for growth inhibition of S. pneumoniae (in words): at moderate concentrations
[7] = tested on: E. faecalis ATCC 29212; test: Broth microdilution MIC
[8] = tested on: B. cereus ATCC 7064; test: MBC determination
Description: as §4

[9] = tested on: B. subtilis BGSC 1A1; test: MBC determination
Description: as §4

[10] = tested on: E. coli ATCC 25922; test: MBC determination; details: for MBC: Escherichia coli, ATCC25922, E. coli ATCC 25922, read-out: MBC; for E. coli (MBC): Table 5 analogs, triplicate experiments, N/O = not observed at concentrations tested (512-0.25 μg/mL)
Description: as §4

[11] = tested on: E. faecalis ATCC 29212; test: MBC determination; details: N/O = not observed
Description: as §4

[12] = tested on: E. coli ATCC 25922; test: Broth microdilution MIC (Gram negative specificity control); details: for antibacterial activity against E. coli (in words): E. coli negative control without T-box riboswitch
[13] = tested on: P. aeruginosa ATCC 27853; test: Broth microdilution MIC; details: N/O = not observed
[14] = tested on: Human Embryonic Kidney (HEK293) cells; test: Toxicity on a monolayer of HEK293 cells
[15] = tested on: S. aureus; test: Disc diffusion assay (DDA) of PKZ6 and PKZ18 analogs with S. aureus; details: Table 4, 150 μg/ml, ✓ = zone of inhibition observed
From the text: as §3
All compounds were tested at a concentration of 150 μg/ml.

[16] = Staphylococcus aureus, ATCC29213, S. aureus ATCC 29213, N/O = not observed, read-out: MIC
[17] = Enterococcus faecalis, ATCC29212, N/O = not observed, read-out: MIC
[18] = Bacillus cereus, ATCC7064, N/O = not observed, read-out: MBC
[19] = Escherichia coli, ATCC25922, E. coli ATCC 25922, N/O = not observed, read-out: MIC
[20] = Staphylococcus aureus, ATCC29213, Table 5 analogs, triplicate experiments, N/O = not observed at concentrations tested (512-0.25 μg/mL), read-out: S. aureus MIC
[21] = Escherichia coli, ATCC25922, Table 5 analogs, triplicate experiments, N/O = not observed at concentrations tested (512-0.25 μg/mL), read-out: E. coli MIC

SMILES | ZOI observed [1] | antibacterial activity against B. subtilis (in words) [2] | MIC [2] [µg/mL] | MIC [3] [µg/mL] | MIC [6] [µg/mL] | antibacterial activity against E. coli (in words) [12] | MIC [13] | 16 hr post exposure % Live ([14]; 32 ug/ml) [%] | 16 hr post exposure Morphology ([14]; 32 ug/ml) | 24 hr post exposure % Confluent ([14]; 32 ug/ml) [%] | 24 hr post exposure % Live ([14]; 32 ug/ml) [%] | 16 hr post exposure % Live ([14]; 64 ug/ml) [%] | 16 hr post exposure Morphology ([14]; 64 ug/ml) | 24 hr post exposure % Confluent ([14]; 64 ug/ml) [%] | 24 hr post exposure % Live ([14]; 64 ug/ml) [%] | 24 hr post exposure Morphology ([14]; 64 ug/ml) | 16 hr post exposure % Live ([14]; 128 ug/ml) [%] | 16 hr post exposure Morphology ([14]; 128 ug/ml) | 24 hr post exposure % Confluent ([14]; 128 ug/ml) [%] | ZOI observed [15] | further results
O=C(NCCN1CCNCC1)c1c(O)c2cccc3c2n(c1=O)CCC3 [Compound 6] | ✓ | active | 32 (≈ 89.8 µM) | 128 (≈ 359 µM) | 64 (≈ 180 µM) | moderate antibacterial activity | N/O (N/D) | 100 | Normal | 50 | 70 | 60 | Mix of Normal and Detached | 15 | 25 | Mix of Normal and Detached | 0 | Rounded and Detached | 0 |  | antibacterial activity against B. subtilis (in words) ([2]; listed as PKZ 6): inhibited growth; growth inhibition of B. cereus (in words) [3]: inhibited growth; antibacterial activity against S. aureus (in words) [4]: displayed antibacterial properties; MIC [4, 16]: 256 µg/mL (≈ 718 µM); antibacterial activity against S. aureus (in words) ([4]; listed as PKZ 6): inhibited growth; MBC [5]: N/O; growth inhibition of S. pneumoniae (in words) [6]: inhibited growth; MIC [7, 17]: 128 µg/mL (≈ 359 µM); MBC [8, 18]: 256 µg/mL (≈ 718 µM); MBC ([9]; IND = indeterminate): IND; MBC [10]: 256 µg/mL (≈ 718 µM); MBC [11]: N/O; MIC [12, 19]: 256 µg/mL (≈ 718 µM); 24 hr post exposure % Live ([14]; 128 ug/ml): 0%; 24 hr post exposure Morphology ([14]; 128 ug/ml): Rounded and Detached
CCn1c(=O)c(C(=O)NCCN2CCNCC2)c(O)c2ccccc21 [Compound 7] | ✓ | active | 32 (≈ 92.9 µM) | 512 (≈ 1490 µM) | 128 (≈ 372 µM) | moderate antibacterial activity | N/O (N/D) | 100 | Normal | 90 | 90 | 80 | Mix of Normal and Detached | 80 | 75 | Mix of Normal and Detached | 0 | Rounded and Detached | 0 |  | MIC ([4]; S. aureus ATCC 29213, N/O = not observed): N/O (N/D); MIC [7, 17]: 512 µg/mL (≈ 1490 µM); MBC ([8]; N/O = not observed): N/O; MBC ([9]; IND = indeterminate): IND; MBC [10]: 512 µg/mL (≈ 1490 µM); MBC [11]: N/O; MIC [12, 19]: 512 µg/mL (≈ 1490 µM); 24 hr post exposure Morphology ([14]; 32 ug/ml): Normal; 24 hr post exposure % Live ([14]; 128 ug/ml): 0%; 24 hr post exposure Morphology ([14]; 128 ug/ml): Rounded and Detached
Cc1sc(NC(=O)C2C3CCC(C3)C2C(=O)O)nc1-c1ccc(C(C)C)cc1 (centres unmarked) [Compound 18] | ✓ | inhibited growth; also recorded: active | 64 (≈ 161 µM) | 64 (≈ 161 µM) | 64 (≈ 161 µM) | did not inhibit growth | N/O (N/D) | 100 | Normal | 90 | 100 | 100 | Normal | 90 | 90 | Mix of Normal and Detached | 100 | Normal | 15 |  | growth inhibition of B. cereus (in words) [3]: inhibited growth; antibacterial activity against S. aureus (in words) [4]: inhibited growth; also recorded: displayed antibacterial properties; MIC [4, 16]: 64 µg/mL (≈ 161 µM); MBC [5]: N/O; growth inhibition of S. pneumoniae (in words) [6]: inhibited growth; MIC ([7]; N/O = not observed): N/O (N/D); MBC [8, 18]: 64 µg/mL (≈ 161 µM); MBC ([9]; Bacillus subtilis, BGSC1A1, IND = indeterminate, read-out: MBC): 64 µg/mL (≈ 161 µM); MIC ([12]; E. coli ATCC 25922, N/O = not observed): N/O (N/D); 24 hr post exposure Morphology ([14]; 32 ug/ml): Normal; 24 hr post exposure % Live ([14]; 128 ug/ml): 15%; 24 hr post exposure Morphology ([14]; 128 ug/ml): Rounded and Detached
CC(C)CCNC(=O)c1c(O)n2c3c(cccc3c1=O)CCC2 [Compound 0603] |  |  |  |  |  |  |  |  |  |  |  |  |  |  |  |  |  |  |  | ✓ | MIC [4, 20]: 512 µg/mL (≈ 1630 µM); S. aureus (MBC) [5]: N/O; E. coli (MBC) [10]: N/O; MIC [12, 21]: 512 µg/mL (≈ 1630 µM)
CC1CC(NC(=O)C2C3CCC(C3)C2C(=O)O)CC(C)(C)C1 (centres unmarked) [Compound 0605] |  |  |  |  |  |  |  |  |  |  |  |  |  |  |  |  |  |  |  | ✓ | 
O=C(NCCN1CCNCC1)c1c(O)c2ccccc2[nH]c1=O [Compound 0607] |  |  |  |  |  |  |  |  |  |  |  |  |  |  |  |  |  |  |  | ✓ | MIC [4, 20]: 512 µg/mL (≈ 1620 µM); S. aureus (MBC) [5]: N/O; E. coli (MBC) [10]: N/O; MIC [12, 21]: 256 µg/mL (≈ 809 µM)
O=C(NCCNCCO)c1c(O)c2cccc3c2n(c1=O)CCC3 [Compound 0609] |  |  |  |  |  |  |  |  |  |  |  |  |  |  |  |  |  |  |  | ✓ | 
CCCn1c(=O)c(C(=O)NCCN2CCNCC2)c(O)c2ccccc21 [Compound 0610] |  |  |  |  |  |  |  |  |  |  |  |  |  |  |  |  |  |  |  | ✓ | 
